Measurements as given in patent publication US5552384A, “Antiherpes compositions and method of use” (priority 1990, dated 1996).
Read-outs that look alike come from different tables or passages of the source. Square brackets hold non-standard residues; d marks the D form. Peptide text beside a SMILES is read from it. * marks the point of attachment. Asp(3,3-(CH2)4) = N[C@H](C(=O)O)C1(C(=O)O)CCCC1; Leu(γ-Me)ol = CC(C)(C)C[C@@H](CO)N*; Hydrocinnamoyl = O=C(CCc1ccccc1)*; Tle = CC(C)(C)[C@H](N)C(=O)O; NMeV = CN[C@H](C(=O)O)C(C)C; Pyrrolidide = C1CCN(*)C1

Tests used:
[1] = in vivo; cited from earlier work
HSV-2 = experiment: microbe, parasite or virus in culture; type: cell-based, HSV-2 (strain HG-52)
Procedure: BHK-21/C13 cells (ATCC CCL 10) are incubated for two days in 150 cm^2 T-flasks (1.5×10^6 cells/flask) with alpha-MEM medium (Gibco Canada Inc., Burlington, Ontario, Canada) supplemented with 8% (v/v) fetal bovine serum (FBS, Gibco Canada Inc.). The cells are trypsinized and then transferred to fresh media in a 24 well plate to give 2.5×10^5 cells in 750 μL of media per well. The cells are incubated at 37° C. for a period of 6 hours to allow them to adhere to the plate. Thereafter, the cells are washed once with 500 μL of alpha-MEM supplemented with 0.5% (v/v) FBS and then incubated with 750 μL of the same media (low serum) for 3 days. After this period of serum starvation, the low serum medium is removed and the cells are incubated in 500 μL of BBMT for 2 to 3 hours. [BBMT medium is described by P. Brazeau et al., Proc. Natl. Acad. Sci. USA, 79, 7909 (1982).] Thereafter, the cells are infected with HSV-2 (multiplicity of infection=0.02 PFU/cell) in 100 μL of BBMT medium. (Note: The HSV-2 used was strain HG-52, see Y. Langelier and G. Buttin, J. Gen. Virol., 57, 21 (1981); the virus was stored at -80° C.) Following 1 hour of virus adsorption at 37° C., the media is removed and the cells are washed with BBMT (3×250 μL). The cells in each well are incubated with or without (control) appropriate concentrations of the test agent dissolved in 200 μL of BBMT medium. After 29 hours of incubation at 37° C., the infected cells are harvested by first freezing the plate at -80° C., followed by thawing. The cells in each well are scraped off the surface of the well with the help of the melting ice fragments. After complete thawing, the cell suspensions are collected and each well is rinsed with 150 μL of BBMT medium. The viral sample (suspension plus washing) is sonicated gently for 4 minutes at 4° C. Cell debris are removed by centrifugation (1000 times gravity for 10 minutes at 4° C.). The supernatant is collected and stored at -80° C. until determination of viral titer.
Viral titration was performed by a modification of the colorimetric assay method of M. Langlois et al., Journal of Biological Standardization, 14, 201 (1986).
More specifically, in a similar manner as described above, BHK-21/C13 cells are trypsinized and transferred to fresh media in a 96 well microtiter plate to give 20,000 cells in 100 μL of media per well. The cells in the prepared plate are incubated at 37° C. for 2 hours. During that time, the viral sample is thawed and sonicated gently for 15 seconds, and log dilutions of the sample are prepared (1/5 sequential: 50 μL of the sample plus 200 μL of BBMT medium, sequential dilutions being done with a multichannel pipette.
On completion of the above 2 hour incubation of the BHK-21/C13 cells, the media is replaced with alpha-MEM medium supplemented with 3% (v/v) FBS. The cells are now ready to be infected with the various sample dilutions of virus. Aliquots (50 μL) of the various dilutions are transferred into the appropriate wells of the plate. The resulting infected cells are incubated for 2 days at 37° C. Then 50 μL of a 0.15% (v/v) solution of neutral red dye in Hank's Balanced Salt Solution (pH 7.3, Gibco Canada Inc.) is added to each well. The prepared plate is incubated for 45 minutes at 37° C. Medium from each well is then aspirated and the cells are washed once with 200 μL of Hank's Balanced Salt Solution. After the wash, the dye is released from the cells by the addition of 100 μL of a 1:1 mixture of 0.1M Sorensen's citrate buffer (pH 4.2) and ethanol. [Sorensen's citrate buffer is prepared as follows: Firstly, a 0.1M disodium citrate solution is prepared by dissolving citric acid monohydrate (21 g) in 1N aqueous NaOH (200 mL) and adding sufficient filtered H2 O to make 1 L. Secondly, the 0.1M disodium citrate solution (61.2 mL) is mixed with 0.1N aqueous HCl (38.8 mL) and the pH of the resulting solution is adjusted to 4.2 if necessary.] […]

Row | IC50 (HSV-2; Human alphaherpesvirus 2, BHK21 (C13), 29 h, agent alone, HSV-2 in BHK-21/C13 cells, 29 hours incubation, read-out: IC50, concentration causing 50% inhibition of virus replication) | IC50 (HSV-2; Human alphaherpesvirus 2, BHK21 (C13), +20 μM of peptide, HSV-2 in BHK-21/C13 cells, read-out: IC50 of acyclovir) | IC50 (HSV-2; Human alphaherpesvirus 2, BHK21 (C13), +30 μM of peptide, HSV-2 in BHK-21/C13 cells, read-out: IC50 of acyclovir) | IC50 (HSV-2; Human alphaherpesvirus 2, BHK21 (C13), +40 μM of peptide, HSV-2 in BHK-21/C13 cells, read-out: IC50 of acyclovir) | IC50 (HSV-2; Human alphaherpesvirus 2, BHK21 (C13), +50 μM of peptide, HSV-2 in BHK-21/C13 cells, read-out: IC50 of acyclovir) | SMILES | side effects [1] | IC50 (HSV-2; 29 h)
1 | 1800 nM | 700 nM | 500 nM | 110 nM | 90 nM | Nc1nc2c(ncn2COCCO)c(=O)[nH]1 [acyclovir, 9-[(2-hydroxyethoxy)methyl]guanine] | skin rashes and renal impairment | –
2 | – | – | – | – | – | CC(C)[C@@H](C(=O)N[C@H](C(=O)N[C@@H](CC(=O)N1CCCC1)C(=O)N[C@H](C(=O)N[C@H](CO)CC(C)(C)C)C1(C(=O)O)CCCC1)C(C)(C)C)N(C)C(=O)CCc1ccccc1 [peptide, PhCH2 CH2 CO--N-Me-Val-Tbg-Asp(pyrrolidino)-Asp(cyPn)-{(S)-NHCH[CH2 C(CH3)3 ]CH2 OH}] (Hydrocinnamoyl-[NMeV][Tle]D(Pyrrolidide)[Asp(3,3-(CH2)4)]-{Leu(γ-Me)ol}) | – | 80000 nM
